According to patent US6896895B2, “Carotenoid esters, carotenoid-enriched feeds, and methods of pigmenting foods and foodstuffs” (DSM IP Assets B.V., priority 2000, dated 2005):

What was measured:
[1] = Carotenoid ester content in plasma, back skin and abdominal fat of broilers (HPLC); assay type: in vivo, broiler chickens (Ross 308, Ross 508); details: for concentrations determined as equivalents of the ethyl β-apo-8′-carotenoate, in the skin: in comparison to the other 12 tested carotenoid esters
Procedure, shortened: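 Ross 308/508 broilers, raised on low-carotenoid basal diet (<2 mg xanthophylls/kg) to day 15 or 22, then fed pigment-supplemented diet for three weeks; plasma sampled day 42, back skin and abdominal fat pooled per group at slaughter on day 44. Carotenoid esters quantified by normal-phase HPLC (0.5% acetone in n-hexane) calibrated with all-E ethyl β-apo-8′-carotenoate; Z-isomers corrected by factor 1.4.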

[2] = Carotenoid ester content and deposition rate in egg yolk of laying hens (HPLC); assay type: in vivo, laying hens (ISA Brown); parameters: Deposition Rate Value: unit not given here; details: for Deposition Rate Target Values % of Controls / Ethyl β-apo-8′-carotenoate Equivalents % of Controls / Deposition Rate % of Controls / Deposition Rate Target Values / Ethyl β-apo-8′-carotenoate Equivalents / Deposition Rate Value: egg yolk; for Deposition Rate % of Controls / Deposition Rate Value: Table 9; for concentration in the egg yolk: versus the control
Procedure, shortened: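 Hens were first depleted for at least 28 days on a low-carotenoid basal diet (<2 mg total xanthophylls/kg, also the control diet), then fed mash supplemented with the pigments ad libitum for three weeks. Pooled homogenised yolk was extracted with ethanol/n-hexane and analysed by HPLC, calibrated with all-E ethyl β-apo-8′-carotenoate. Response factors were adjusted by molecular weight, and Z-isomers were corrected by a factor of 1.4.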

[3] = average over doses, in relation to the controls (CAROPHYLL Yellow) of the same trial, Table 3
[4] = trial MC-24/99, 20 mg/kg feed, in relation to the controls of the same trial
[5] = trial MC-24/99, 30 mg/kg feed, in relation to the controls of the same trial
[6] = trial MC-11/99, 8.88 mg/kg feed
[7] = trial MC-11/99, 13.33 mg/kg feed

## CC(C=CC=C(C)C=CC1=C(C)CCCC1(C)C)=CC=CC=C(C)C=CC=C(C)C(=O)OC(C)(C)C [compound (18), tert. butyl beta-apo-8′-carotenoate]
[1]; [3]
  Analytical Content as Equivalent of Ethyl β-apo-8′-carotenoate Fat %: 113%
  Analytical Content as Equivalent of Ethyl β-apo-8′-carotenoate Plasma %: 103%
  Analytical Content as Equivalent of Ethyl β-apo-8′-carotenoate Skin %: 198%
[1]; average over doses, in relation to the controls (CAROPHYLL Yellow) of the same trial, Table 3, listed as tert. Butyl β-apo-8′-carotenoate
  Analytical Content as Equivalent of Ethyl β-apo-8′-carotenoate Skin %: 189%
[1]
  concentrations determined as equivalents of the ethyl β-apo-8′-carotenoate, in the skin: substantially higher
[1]; trial MC-24/99, 20 mg/kg feed
  Analytical Content as Equivalent of Ethyl β-apo-8′-carotenoate Fat: 3.7 mg/kg
  Analytical Content as Equivalent of Ethyl β-apo-8′-carotenoate Plasma: 12.2 mg/kg
  Analytical Content as Equivalent of Ethyl β-apo-8′-carotenoate Skin: 5.4 mg/kg
[1]; [4]
  Analytical Content as Equivalent of Ethyl β-apo-8′-carotenoate Fat %: 119%
  Analytical Content as Equivalent of Ethyl β-apo-8′-carotenoate Plasma %: 117%
  Analytical Content as Equivalent of Ethyl β-apo-8′-carotenoate Skin %: 194%
[1]; trial MC-24/99, 30 mg/kg feed
  Analytical Content as Equivalent of Ethyl β-apo-8′-carotenoate Fat: 4.6 mg/kg
  Analytical Content as Equivalent of Ethyl β-apo-8′-carotenoate Plasma: 14.1 mg/kg
  Analytical Content as Equivalent of Ethyl β-apo-8′-carotenoate Skin: 6.4 mg/kg
[1]; [5]
  Analytical Content as Equivalent of Ethyl β-apo-8′-carotenoate Fat %: 107%
  Analytical Content as Equivalent of Ethyl β-apo-8′-carotenoate Plasma %: 88%
  Analytical Content as Equivalent of Ethyl β-apo-8′-carotenoate Skin %: 184%
[2]; average over doses, Table 7
  Deposition Rate Target Values % of Controls: 119%
  Ethyl β-apo-8′-carotenoate Equivalents % of Controls: 106%
[2]; average over doses
  Deposition Rate % of Controls: 119%
[2]; trial H-25/99, 5.0 mg/kg feed
  Deposition Rate Target Values: 60.7%
  Deposition Rate Target Values % of Controls: 119%
  Ethyl β-apo-8′-carotenoate Equivalents: 16.6 mg/kg
  Ethyl β-apo-8′-carotenoate Equivalents % of Controls: 106%
  Deposition Rate % of Controls: 119%
  Deposition Rate Value: 61
[2]
  concentration in the egg yolk: in the range of the control

## CCCC(C)OC(=O)C(C)=CC=CC(C)=CC=CC=C(C)C=CC=C(C)C=CC1=C(C)CCCC1(C)C (stereo not drawn) [compound (19), 2-pentyl beta-apo-8′-carotenoate]
[1]; [3]
  Analytical Content as Equivalent of Ethyl β-apo-8′-carotenoate Fat %: 85%
  Analytical Content as Equivalent of Ethyl β-apo-8′-carotenoate Plasma %: 88%
  Analytical Content as Equivalent of Ethyl β-apo-8′-carotenoate Skin %: 134%
[1]
  concentrations determined as equivalents of the ethyl β-apo-8′-carotenoate, in the skin: substantially higher
[1]; trial MC-24/99, 20 mg/kg feed
  Analytical Content as Equivalent of Ethyl β-apo-8′-carotenoate Fat: 2.6 mg/kg
  Analytical Content as Equivalent of Ethyl β-apo-8′-carotenoate Plasma: 9.6 mg/kg
  Analytical Content as Equivalent of Ethyl β-apo-8′-carotenoate Skin: 3.6 mg/kg
[1]; [4]
  Analytical Content as Equivalent of Ethyl β-apo-8′-carotenoate Fat %: 83%
  Analytical Content as Equivalent of Ethyl β-apo-8′-carotenoate Plasma %: 93%
  Analytical Content as Equivalent of Ethyl β-apo-8′-carotenoate Skin %: 128%
[1]; trial MC-24/99, 30 mg/kg feed
  Analytical Content as Equivalent of Ethyl β-apo-8′-carotenoate Fat: 3.8 mg/kg
  Analytical Content as Equivalent of Ethyl β-apo-8′-carotenoate Plasma: 13.3 mg/kg
  Analytical Content as Equivalent of Ethyl β-apo-8′-carotenoate Skin: 4.8 mg/kg
[1]; [5]
  Analytical Content as Equivalent of Ethyl β-apo-8′-carotenoate Fat %: 87%
  Analytical Content as Equivalent of Ethyl β-apo-8′-carotenoate Plasma %: 82%
  Analytical Content as Equivalent of Ethyl β-apo-8′-carotenoate Skin %: 139%
[2]; average over doses, Table 7
  Deposition Rate Target Values % of Controls: 101%
  Ethyl β-apo-8′-carotenoate Equivalents % of Controls: 94%
[2]; average over doses
  Deposition Rate % of Controls: 101%
[2]; trial H-25/99, 5.0 mg/kg feed
  Deposition Rate Target Values: 51.2%
  Deposition Rate Target Values % of Controls: 101%
  Ethyl β-apo-8′-carotenoate Equivalents: 14.6 mg/kg
  Ethyl β-apo-8′-carotenoate Equivalents % of Controls: 94%
  Deposition Rate % of Controls: 101%
  Deposition Rate Value: 51
[2]
  concentration in the egg yolk: in the range of the control

## CC1=C(/C=C/C(C)=C/C=C/C(C)=C/C=C/C=C(C)/C=C/C=C(\C)C(=O)OC(C)C)C(C)(C)CCC1 [compound (17), isopropyl beta-apo-8′-carotenoate]
[1]; [3]
  Analytical Content as Equivalent of Ethyl β-apo-8′-carotenoate Fat %: 88%
  Analytical Content as Equivalent of Ethyl β-apo-8′-carotenoate Plasma %: 129%
  Analytical Content as Equivalent of Ethyl β-apo-8′-carotenoate Skin %: 134%
[1]
  concentrations determined as equivalents of the ethyl β-apo-8′-carotenoate, in the skin: substantially higher
[1]; trial MC-02/99, 10 mg/kg feed
  Analytical Content as Equivalent of Ethyl β-apo-8′-carotenoate Fat: 1.8 mg/kg
  Analytical Content as Equivalent of Ethyl β-apo-8′-carotenoate Plasma: 6.3 mg/kg
  Analytical Content as Equivalent of Ethyl β-apo-8′-carotenoate Skin: 2.0 mg/kg
[1]; trial MC-02/99, 20 mg/kg feed
  Analytical Content as Equivalent of Ethyl β-apo-8′-carotenoate Fat: 3.3 mg/kg
  Analytical Content as Equivalent of Ethyl β-apo-8′-carotenoate Plasma: 13.4 mg/kg
  Analytical Content as Equivalent of Ethyl β-apo-8′-carotenoate Skin: 4.1 mg/kg
[1]; [6]
  Analytical Content as Equivalent of Ethyl β-apo-8′-carotenoate Fat: 1.2 mg/kg
  Analytical Content as Equivalent of Ethyl β-apo-8′-carotenoate Plasma: 6.0 mg/kg
  Analytical Content as Equivalent of Ethyl β-apo-8′-carotenoate Skin: 1.6 mg/kg
[1]; [7]
  Analytical Content as Equivalent of Ethyl β-apo-8′-carotenoate Fat: 1.9 mg/kg
  Analytical Content as Equivalent of Ethyl β-apo-8′-carotenoate Plasma: 8.6 mg/kg
  Analytical Content as Equivalent of Ethyl β-apo-8′-carotenoate Skin: 2.6 mg/kg
[1]; trial MC-11/99, 20 mg/kg feed
  Analytical Content as Equivalent of Ethyl β-apo-8′-carotenoate Fat: 2.9 mg/kg
  Analytical Content as Equivalent of Ethyl β-apo-8′-carotenoate Plasma: 13.3 mg/kg
  Analytical Content as Equivalent of Ethyl β-apo-8′-carotenoate Skin: 3.7 mg/kg
[1]; trial MC-11/99, 30 mg/kg feed
  Analytical Content as Equivalent of Ethyl β-apo-8′-carotenoate Fat: 3.4 mg/kg
  Analytical Content as Equivalent of Ethyl β-apo-8′-carotenoate Plasma: 18.3 mg/kg
  Analytical Content as Equivalent of Ethyl β-apo-8′-carotenoate Skin: 6.1 mg/kg
[1]; trial MC-11/99, 45 mg/kg feed
  Analytical Content as Equivalent of Ethyl β-apo-8′-carotenoate Fat: 6.4 mg/kg
  Analytical Content as Equivalent of Ethyl β-apo-8′-carotenoate Plasma: 30.6 mg/kg
  Analytical Content as Equivalent of Ethyl β-apo-8′-carotenoate Skin: 9.0 mg/kg
[1]; trial MC-24/98, 15 mg/kg feed
  Analytical Content as Equivalent of Ethyl β-apo-8′-carotenoate Fat: 2.3 mg/kg
  Analytical Content as Equivalent of Ethyl β-apo-8′-carotenoate Plasma: 10.0 mg/kg
  Analytical Content as Equivalent of Ethyl β-apo-8′-carotenoate Skin: 2.5 mg/kg
[1]; trial MC-24/98, 30 mg/kg feed
  Analytical Content as Equivalent of Ethyl β-apo-8′-carotenoate Fat: 4.5 mg/kg
  Analytical Content as Equivalent of Ethyl β-apo-8′-carotenoate Plasma: 19.9 mg/kg
  Analytical Content as Equivalent of Ethyl β-apo-8′-carotenoate Skin: 5.6 mg/kg
[2]; average over doses, Table 7
  Deposition Rate Target Values % of Controls: 101%
  Ethyl β-apo-8′-carotenoate Equivalents % of Controls: 91%
[2]; average over doses
  Deposition Rate % of Controls: 101%
[2]; trial H-12/99, 1.0 mg/kg feed
  Deposition Rate Target Values: 44%
  Deposition Rate Target Values % of Controls: 97%
  Ethyl β-apo-8′-carotenoate Equivalents: 2.6 mg/kg
  Ethyl β-apo-8′-carotenoate Equivalents % of Controls: 97%
  Deposition Rate % of Controls: 97%
  Deposition Rate Value: 44
[2]; trial H-12/99, 2.0 mg/kg feed
  Deposition Rate Target Values: 44%
  Deposition Rate Target Values % of Controls: 100%
  Ethyl β-apo-8′-carotenoate Equivalents: 5.2 mg/kg
  Ethyl β-apo-8′-carotenoate Equivalents % of Controls: 94%
  Deposition Rate % of Controls: 100%
  Deposition Rate Value: 44
[2]; trial H-12/99, 4.0 mg/kg feed
  Deposition Rate Target Values: 42%
  Deposition Rate Target Values % of Controls: 85%
  Ethyl β-apo-8′-carotenoate Equivalents: 9.6 mg/kg
  Ethyl β-apo-8′-carotenoate Equivalents % of Controls: 81%
  Deposition Rate % of Controls: 85%
  Deposition Rate Value: 42
[2]; trial H-12/99, 8.0 mg/kg feed
  Deposition Rate Target Values: 49%
  Deposition Rate Target Values % of Controls: 104%
  Ethyl β-apo-8′-carotenoate Equivalents: 23.1 mg/kg
  Ethyl β-apo-8′-carotenoate Equivalents % of Controls: 96%
  Deposition Rate % of Controls: 104%
  Deposition Rate Value: 49
[2]; trial H-19/98, 4.0 mg/kg feed
  Deposition Rate Target Values: 54%
  Deposition Rate Target Values % of Controls: 117%
  Ethyl β-apo-8′-carotenoate Equivalents: 11.1 mg/kg
  Ethyl β-apo-8′-carotenoate Equivalents % of Controls: 95%
  Deposition Rate % of Controls: 117%
  Deposition Rate Value: 54
[2]; trial H-25/98, 5.0 mg/kg feed
  Deposition Rate % of Controls: 106%
  Deposition Rate Value: 50
[2]; trial H-25/99, 5.0 mg/kg feed
  Deposition Rate Target Values: 50%
  Deposition Rate Target Values % of Controls: 100%
  Ethyl β-apo-8′-carotenoate Equivalents: 13.3 mg/kg
  Ethyl β-apo-8′-carotenoate Equivalents % of Controls: 84%
[2]
  concentration in the egg yolk: in the range of the control
